Publication PMC11486972 (Hepatology (Baltimore, Md.), 2024)

Biological target: cathepsin S (CTSS) (Homo sapiens, UniProt P25774)
Assay: cell-free enzyme assay with recombinant CTSS
Format: biochemical

Sequence of cathepsin S (CTSS) (P25774 115-331): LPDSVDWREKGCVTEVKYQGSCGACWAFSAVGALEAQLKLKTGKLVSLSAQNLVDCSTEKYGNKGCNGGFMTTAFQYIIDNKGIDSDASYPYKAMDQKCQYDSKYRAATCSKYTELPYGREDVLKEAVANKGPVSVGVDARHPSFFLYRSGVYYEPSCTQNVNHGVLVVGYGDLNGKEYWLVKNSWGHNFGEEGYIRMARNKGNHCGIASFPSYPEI

- EC50: 0.9 µM
Compound: CN1CCN(C(=O)N[C@@H](Cc2ccccc2)C(=O)N[C@H](/C=C/S(=O)(=O)c2ccccc2)CCc2ccccc2)CC1 [K11777]
